Experimental data from patent publication US7645784B2, “Benzimidazole derivatives” (AstraZeneca AB, priority 2003, dated 2010).

Molecular target: T1, hVR1 (Homo sapiens, UniProt Q8NER1)
T1 construct: expressed in transfected cells
Assay: hVR1 FLIPR (Fluorometric Image Plate Reader) screening assay, IC50 determination
Format: cell-based
Settings: CHO cells stably expressing hVR1
Experimental: 1. hVR1 FLIPR (Fluorometric Image Plate Reader) screening assay
Transfected CHO cells, stably expessing hVR1 (15,000 cells/well) are seeded in 50 μL media in a black clear bottom 384 plate (Greiner) and grown in a humidified incubator (37° C., 2% CO2), 24-30 hours prior to experiment.
Subsequently, the media is removed from the cell plate by inversion and 2 μM Fluo-4 is added using a multidrop (Labsystems). Following the 40 min dye incubation in the dark at 37° C. and 2% CO2, the extracellular dye present is washed away using an EMBLA (Scatron), leaving the cells in 40 μL of assay buffer (1×HBSS, 10 mM D-Glucose, 1 mM CaCl2,10 mM HEPES, 10×7.5% NaHCO3 and 2.5 mM Probenecid).
FLIPR assay—IC50 determination protocol
For IC50 determinations the fluorescence is read using FLIPR filter 1 (em […]). A cellular baseline recording is taken for 30 seconds, followed by a 20 μL addition of 10, titrated half-log concentrations of the test compound, yielding cellular concentration ranging from 3 μM to 0.1 nM. Data is collected every 2 seconds for a further 5 min prior to the addition of a VR1 agonist solution: either 50 nM solution of capsaicin or MES (2-[N-morpholino]ethanesulfonic acid) buffer (pH 5.2), by the FLIPR pipettor. The FLIPR continues to collect data for a further 4 min. Compounds having antagonistic properties against the hVR1 will inhibit the increase in intracellular calcium in response to the capsaicin addition. This consequently leading to a reduction in fluorescence signal and providing a reduced fluorescence reading, compared with no compound, buffer controls. Data is exported by the FLIPR program as a sum of fluorescence calculated under the curve upon the addition of capsaicin. Maximum inhibition, Hill slope and IC50 data for each compound are generated.

T1 sequence (Q8NER1 whole entry): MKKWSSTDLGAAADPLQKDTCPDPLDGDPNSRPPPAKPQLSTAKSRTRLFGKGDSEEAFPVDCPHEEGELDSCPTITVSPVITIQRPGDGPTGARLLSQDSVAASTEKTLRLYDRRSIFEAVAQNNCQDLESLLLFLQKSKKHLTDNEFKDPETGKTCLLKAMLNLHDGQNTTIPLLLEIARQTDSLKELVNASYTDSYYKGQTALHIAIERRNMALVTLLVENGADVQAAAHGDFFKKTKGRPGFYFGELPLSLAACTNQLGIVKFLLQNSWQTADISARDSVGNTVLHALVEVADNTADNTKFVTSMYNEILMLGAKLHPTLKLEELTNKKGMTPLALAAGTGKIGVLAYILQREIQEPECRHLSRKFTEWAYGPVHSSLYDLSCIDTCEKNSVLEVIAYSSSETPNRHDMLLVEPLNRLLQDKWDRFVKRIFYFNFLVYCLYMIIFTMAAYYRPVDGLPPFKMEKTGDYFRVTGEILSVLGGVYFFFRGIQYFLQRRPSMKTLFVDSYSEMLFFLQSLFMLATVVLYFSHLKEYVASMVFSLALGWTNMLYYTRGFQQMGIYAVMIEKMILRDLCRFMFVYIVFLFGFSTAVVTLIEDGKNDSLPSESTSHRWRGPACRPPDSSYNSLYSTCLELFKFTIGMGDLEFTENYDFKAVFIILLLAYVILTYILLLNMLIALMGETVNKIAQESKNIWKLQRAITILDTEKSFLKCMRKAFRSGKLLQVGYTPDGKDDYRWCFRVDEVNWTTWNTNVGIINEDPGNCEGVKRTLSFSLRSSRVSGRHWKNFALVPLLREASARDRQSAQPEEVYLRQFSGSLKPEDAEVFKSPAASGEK

IC50 (agonist H+/MES buffer (pH 5.2))	IC50 (agonist capsaicin)	Compound
70 nM	50 nM	O=C(Cn1cnc2cccc([N+](=O)[O-])c21)Nc1cc(F)cc(F)c1 [Example 7, N-(3,5-Difluorophenyl)-2-(7-nitro-1H-benzimidazol-1-yl)acetamide]
140 nM	160 nM	COC(=O)c1cccc2ncn(CC(=O)Nc3cc(OC)cc(OC)c3)c12 [Example 67, Methyl 1-{2-[(3,5-dimethoxyphenyl)amino]-2-oxoethyl}-1H-benzimidazole-7-carboxylate]
